The source of these data is patent US20020012630A1, “Methods for testing compounds useful in treating diabetic complications” (priority 2000, published 2002).

Assay [1] deals with experimental wounds of streptozotocin-induced diabetic rats. The assay can be described thus: Wound healing in experimental wounds of streptozotocin-induced diabetic rats. Format: in vivo, rat. As to conditions: 6-week streptozotocin-induced diabetic rats treated with 20 mg/kg, compared with normal untreated rats; FIGS. 5, 6A-6B. The method, then:
The blood glucose levels of streptozotocin-induced diabetic rats was maintained at between 300-350 mg/dL with subcutaneous injection of insulin. Experimental wounds, having a diameter of […] and including the panniculus carnosus muscle, were made on the backs of diabetic rats. Wounds were serially photographed with a digital camera at the time of wounding, and then again every three days after wound induction until the time of closure, and the area of the wound measured (and expressed as cm^2). Wound closure was defined as complete epithelialization. The degree of wound contraction is calculated as: {(size of wound at day 0−size of wound at day X)/size of wound at day 0)}×100. Diabetic rats were administered 20 mg/kg of the aldose reductase inhibitor 3(4,5,7-triflurobenzothiazol-2-yl)methyl-indole-N-acetic acid at either the time of diabetes induction (simulating treatment prior to diabetic complications) or 6 weeks after diabetes induction (simulating treatment at the time of diabetic complications).

Assay [2] has as its system full-thickness skin wounds of db/db mice. As to conditions: three doses on days 0, 1 and 2 under Tegederm wound dressing, dose of 10-1000 nM; cited from earlier work.

Where no end group is shown, it is not given here.

As for `O=C(O)Cn1cc(Cc2nc3c(F)c(F)cc(F)c3s2)c2ccccc21` [3-(4,5,7-triflurobenzothiazol-2-yl)methyl-indole-N-acetic acid], the “wound healing rate (wound size and wound contraction)” value in assay [1] was “healed at the same rate as the wounds in normal rats”. Consider “Substance P (RPKPQQFFGLM-NH2; ends and bridges not checked; UniProt P20366 58-68, looked up) [SP]”, for which the time of healing entry in assay [2] is “improved time of healing”.
